What was measured:
Type in all cases: cell-based
[1] = test system: human embryonic lung fibroblast IMR-90; assay: Anti-fibrosis activity test: inhibition of proliferation of human embryonic lung fibroblast IMR-90 (CCK-8)
In short: (§1)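 Proliferation inhibition is measured by CCK-8 after cells plated at 2×10^4 cells/mL attach overnight (24 h) and then receive test compounds for 48 h at several concentrations, each in triplicate. Optical density at 450 nm gives IR = (1−Ai/Ao)×100%, from which IC50 is computed.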

[2] = test system: human fibrosarcoma cells HT-1080; assay: Anti-fibrosis activity test: inhibition of proliferation of human fibrosarcoma cells HT-1080 (CCK-8); settings: Homo sapiens, HT-1080, 48 h
In short: as §1

[3] = test system: human lung fibroblasts HFL1; assay: Anti-fibrosis activity test: inhibition of proliferation of human lung fibroblasts HFL1 (CCK-8); settings: Homo sapiens, HFL1, 48 h
In short: as §1

[4] = test system: human hepatic stellate cells LX-2; assay: Anti-fibrosis activity test: inhibition of proliferation of human hepatic stellate cells LX-2 (CCK-8); settings: Homo sapiens, 48 h
In short: as §1

[5] = test system: cardiac fibroblast RAT-iCell-C002; assay: Anti-fibrosis activity test: inhibition of proliferation of cardiac fibroblast RAT-iCell-C002 (CCK-8); settings: Cardiac fibroblast, 48 h
In short: as §1

BHK-21 cells = assay: Anti-fibrosis activity test: inhibition of BHK-21 cell proliferation (CCK-8); settings: Mesocricetus auratus, BHK-21, 48 h
In short: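 Cells seeded at 2×10^4 cells/mL, allowed to adhere 24 hours, then exposed to graded compound concentrations in triplicate for 48 hours at 37° C, 5% CO2. CCK-8 added for 2 hours, absorbance read at 450 nm; inhibition versus blank control used to derive IC50. Pirfenidone served as positive control.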

[6] = test system: human dermal fibroblasts CCC-ESF-1; assay: Anti-fibrosis activity test: inhibition of proliferation of human dermal fibroblasts CCC-ESF-1 (CCK-8); settings: Fibroblast
In short: as §1

NF-κB = assay: Immunological activity test: inhibition of NF-κB activity; settings: initial concentration of 30 μM; a/b isomers given as first/second symbol; read-out: IC50 (μM), inhibitory activity against NF-κB
In short: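 IC50 values were derived after initial screening of compounds at 30 μM for NF-κB inhibitory activity, with parthenolide serving as the positive control.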

[7] = test system: mouse macrophages (RAW264.7); assay: Lipopolysaccharide-induced NO secretion in macrophages (Griess); settings: Mus musculus, RAW264.7, 24 h, RAW264.7, LPS 1 μg/ml, a/b isomers given as first/second symbol, read-out: IC50 (μM), inhibition of lipopolysaccharide-induced NO secretion in macrophages
In short: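 Indomethacin and resveratrol served as positive controls while compounds were tested across concentrations on LPS-stimulated (1 μg/ml, 24 h) RAW264.7 cells. NO output was quantified colorimetrically (Griess, 548 nm).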

[8] = human embryonic lung fibroblast IMR-90, CCK-8, 48 hours
[9] = human fibrosarcoma cells HT-1080, CCK-8, 48 hours
[10] = human lung fibroblasts HFL1, CCK-8, 48 hours
[11] = human hepatic stellate cells LX-2, CCK-8, 48 hours
[12] = cardiac fibroblast RAT-iCell-C002, CCK-8, 48 hours
[13] = CCK-8, 48 hours after administration
[14] = human dermal fibroblasts CCC-ESF-1, CCK-8, 48 hours
[15] = Homo sapiens, IMR-90 cells, 48 h, CCK-8
[16] = Homo sapiens, CCC-ESF-1 cells, 48 h, CCK-8

Compound	IC50 [2, 9] [mM]	IC50 (NF-κB) [µM]	IC50 [7] [µM]	IC50 ([2]; HT-1080 cells, 48 h, CCK-8) [mM]	IC50 [1, 8] [mM]	IC50 [3, 10] [mM]	IC50 [4, 11] [mM]	IC50 [5, 12] [mM]	IC50 (BHK-21 cells; [13]) [mM]	IC50 [6, 14] [mM]	IC50 [1, 15] [mM]	IC50 ([3]; HFL1 cells, 48 h, CCK-8) [mM]	IC50 ([4]; LX-2, 48 h, LX-2 cells, CCK-8) [mM]	IC50 ([5]; RAT-iCell-C002 cells, CCK-8) [mM]	IC50 (BHK-21 cells; 48 h, CCK-8) [mM]	IC50 [6, 16] [mM]
Cc1ccc(C)c2c(O)c3c(nc12)-c1cccn1C3=O [Compound 772b, 9-hydroxy-5,8-dimethyl-10H-pyrrolizino[1,2-b]quinolin-10-one]	–	0.1 to 1	1 to 10	0.05 to 5	–	–	–	–	–	–	0.05 to 5	0.05 to 5	0.05 to 5	0.05 to 5	0.05 to 5	0.05 to 5
COc1ccc2c(O)c3c(nc2c1)-c1cccn1C3=O [Compound 560b, 9-hydroxy-6-methoxy-10H-pyrrolizino[1,2-b]quinolin-10-one]	0.05 to 5	1 to 10	1 to 10	–	0.05 to 5	0.05 to 5	0.05 to 5	0.05 to 5	0.05 to 5	0.05 to 5	–	–	–	–	–	–
CS(=O)(=O)CCCn1c2c(c(=O)c3ccccc31)C(=O)n1cccc1-2 [Compound 659a, 4-(3-(Methylsulfonyl)propyl)-9H-pyrrolizino[1,2-b]quinoline-9,10(4H)-dione]	0.05 to 5	1 to 10	1 to 10	–	0.05 to 5	0.05 to 5	0.05 to 5	0.05 to 5	0.05 to 5	0.05 to 5	–	–	–	–	–	–
CCCOCCn1c2c(c(=O)c3ccccc31)C(=O)n1cccc1-2 [Compound 671a, 4-(2-Propoxyethyl)-9H-pyrrolizino[1,2-b]quinoline-9,10(4H)-dione]	–	1 to 10	1 to 10	0.05 to 5	–	–	–	–	–	–	0.05 to 5	0.05 to 5	0.05 to 5	0.05 to 5	0.05 to 5	0.05 to 5
COc1cccc2[nH]c3c(c(=O)c12)C(=O)n1cccc1-3 [Compound 473a, 8-Methoxy-9H-pyrrolizino[1,2-b]quinoline-9,10(4H)-dione]	0.05 to 5	1 to 10	1 to 10	–	0.05 to 5	0.05 to 5	0.05 to 5	< 0.05	0.05 to 5	0.05 to 5	–	–	–	–	–	–
O=C1c2c(nc3ccccc3c2OCCCCN2CCCCC2)-c2cccn21 [Compound 667b, 9-(4-(piperidin-1-yl)butoxy)-10H-pyrrolizino[1,2-b]quinolin-10-one]	–	1 to 10	1 to 10	0.05 to 5	–	–	–	–	–	–	0.05 to 5	0.05 to 5	0.05 to 5	0.05 to 5	0.05 to 5	0.05 to 5
O=C1c2c(n(CCF)c3ccccc3c2=O)-c2cccn21 [Compound 653a, 4-(2-Fluoroethyl)-9H-pyrrolizino[1,2-b]quinoline-9,10(4H)-dione]	0.05 to 5	1 to 10	1 to 10	–	0.05 to 5	0.05 to 5	0.05 to 5	0.05 to 5	0.05 to 5	0.05 to 5	–	–	–	–	–	–
Cc1cc(C)c2c(O)c3c(nc2c1)-c1cccn1C3=O [Compound 768b, 9-hydroxy-6,8-dimethyl-10H-pyrrolizino[1,2-b]quinolin-10-one]	–	1 to 10	1 to 10	0.05 to 5	–	–	–	–	–	–	0.05 to 5	0.05 to 5	0.05 to 5	0.05 to 5	0.05 to 5	0.05 to 5
CN(C)CCn1c2c(c(=O)c3ccccc31)C(=O)n1cccc1-2 [Compound 12a, 4-(2-(Dimethylamino)ethyl)-9H-pyrrolizino[1,2-b]quinoline-9,10(4H)-dione]	0.05 to 5	1 to 10	1 to 10	–	0.05 to 5	0.05 to 5	0.05 to 5	0.05 to 5	0.05 to 5	0.05 to 5	–	–	–	–	–	–

Now from value to molecule, other results behind:

IC50 [2, 9] [mM]	IC50 (NF-κB) [µM]	IC50 [7] [µM]	IC50 ([2]; HT-1080 cells, 48 h, CCK-8) [mM]	Compound	IC50 [1, 8] [mM]	IC50 [3, 10] [mM]	IC50 [4, 11] [mM]	IC50 [5, 12] [mM]	IC50 (BHK-21 cells; [13]) [mM]	IC50 [6, 14] [mM]	IC50 [1, 15] [mM]	IC50 ([3]; HFL1 cells, 48 h, CCK-8) [mM]	IC50 ([4]; LX-2, 48 h, LX-2 cells, CCK-8) [mM]	IC50 ([5]; RAT-iCell-C002 cells, CCK-8) [mM]	IC50 (BHK-21 cells; 48 h, CCK-8) [mM]	IC50 [6, 16] [mM]
0.05 to 5	1 to 10	1 to 10	–	O=C1c2c(nc3ccccc3c2OCc2cccc(I)c2)-c2cccn21 [Compound 608b, 9-((3-iodobenzyl)oxy)-10H-pyrrolizino[1,2-b]quinolin-10-one]	0.05 to 5	0.05 to 5	0.05 to 5	0.05 to 5	0.05 to 5	0.05 to 5	–	–	–	–	–	–
0.05 to 5	1 to 10	1 to 10	–	O=C1c2c(nc3ccccc3c2OCc2ccc(Cl)cc2F)-c2cccn21 [Compound 602b, 9-((4-chloro-2-fluorobenzyl)oxy)-10H-pyrrolizino[1,2-b]quinolin-10-one]	0.05 to 5	0.05 to 5	0.05 to 5	0.05 to 5	0.05 to 5	0.05 to 5	–	–	–	–	–	–
0.05 to 5	1 to 10	10 to 50	–	N#Cc1ccccc1-c1ccc(COc2c3c(nc4ccccc24)-c2cccn2C3=O)cc1 [Compound 648b, 4′-(((10-oxo-10H-pyrrolizino[1,2-b]quinolin-9-yl)oxy)methyl)-[1,1′-biphenyl]-2-carbonitrile]	0.05 to 5	0.05 to 5	0.05 to 5	0.05 to 5	0.05 to 5	0.05 to 5	–	–	–	–	–	–
0.05 to 5	1 to 10	1 to 10	–	O=C(COc1c2c(nc3ccccc13)-c1cccn1C2=O)c1ccc(-c2ccccc2)cc1 [Compound 50b, 9-(2-([1,1′-biphenyl]-4-yl)-2-oxoethoxy)-10H-pyrrolizino[1,2-b]quinolin-10-one]	5 to 20	0.05 to 5	5 to 20	5 to 20	0.05 to 5	< 0.05	–	–	–	–	–	–
0.05 to 5	1 to 10	1 to 10	–	Cc1ccccc1Cn1c2c(c(=O)c3ccccc31)C(=O)n1cccc1-2 [Compound 574a, 4-(2-Methylbenzyl)-9H-pyrrolizino[1,2-b]quinoline-9,10(4H)-dione]	0.05 to 5	0.05 to 5	0.05 to 5	0.05 to 5	0.05 to 5	0.05 to 5	–	–	–	–	–	–
0.05 to 5	10 to 50	10 to 50	–	O=C1c2c(nc3ccccc3c2OCc2ccc(-c3ccccc3)cc2)-c2cccn21 [Compound 649b, 9-([1,1′-biphenyl]-4-ylmethoxy)-10H-pyrrolizino[1,2-b]quinolin-10-one]	0.05 to 5	0.05 to 5	0.05 to 5	0.05 to 5	0.05 to 5	0.05 to 5	–	–	–	–	–	–
0.05 to 5	1 to 10	1 to 10	–	O=C1c2c(nc3ccccc3c2OCc2ccc(Br)cc2F)-c2cccn21 [Compound 606b, 9-((4-bromo-2-fluorobenzyl)oxy)-10H-pyrrolizino[1,2-b]quinolin-10-one]	0.05 to 5	0.05 to 5	0.05 to 5	0.05 to 5	0.05 to 5	0.05 to 5	–	–	–	–	–	–
0.05 to 5	1 to 10	1 to 10	–	O=C1c2c(nc3ccccc3c2OCc2ccc(I)cc2)-c2cccn21 [Compound 575b, 9-((4-iodobenzyl)oxy)-10H-pyrrolizino[1,2-b]quinolin-10-one]	0.05 to 5	0.05 to 5	0.05 to 5	0.05 to 5	0.05 to 5	0.05 to 5	–	–	–	–	–	–
0.05 to 5	1 to 10	1 to 10	–	CCOC(=O)/C=C/COc1c2c(nc3ccccc13)-c1cccn1C2=O [Compound 661b, ethyl (E)-4-((10-oxo-10H-pyrrolizino[1,2-b]quinolin-9-yl)oxy)but-2-enoate]	0.05 to 5	0.05 to 5	0.05 to 5	0.05 to 5	0.05 to 5	0.05 to 5	–	–	–	–	–	–
0.05 to 5	1 to 10	1 to 10	–	O=C1c2c(nc3ccc(Br)cc3c2O)-c2cccn21 [Compound 246b, 7-bromo-9-hydroxy-10H-pyrrolizino[1,2-b]quinolin-10-one]	0.05 to 5	0.05 to 5	0.05 to 5	0.05 to 5	0.05 to 5	0.05 to 5	–	–	–	–	–	–

Source: patent US11040028B2, “Penicinotam derivative, preparation method and use thereof” (OCEAN UNIVERSITY OF CHINA, priority 2017, dated 2021)
